How the values were obtained:
[1] = log P by HPLC on reversed-phase column, acidic range; type: physicochemical; details: reversed-phase HPLC column (C 18); pH 2.7, 0.1% aqueous formic acid and acetonitrile, C 18 column, 55° C.; read-out: log P (HCOOH)
Protocol: The log P values are measured according to EEC Directive 79/831 Annex V.A8 by HPLC (high-performance lilog Puid chromatography) on a reversed-phase column (C 18). Temperature: 55° C.
The LC-MS determination in the acidic range is effected at pH 2.7 with 0.1% alog Pueous formic acid and acetonitrile (containing 0.1% formic acid) as eluents; linear gradient from 10% acetonitrile to 95% acetonitrile. Called log P (HCOOH) in the table.
Calibration is effected using unbranched alkan-2-ones (having 3 to 16 carbon atoms) with known log P values (log P values determined on the basis of the retention times by linear interpolation between two successive alkanones).

Phaedon cochleariae = Phaedon cochleariae spray test; type: in vivo; details: application rate 100 g/ha, after 7 days, Chinese cabbage leaf discs
Protocol: (§1) To produce a suitable active ingredient formulation, 1 part by weight of active ingredient is dissolved with the specified parts by weight of solvent and made up to the desired concentration with water containing an emulsifier concentration of 1000 ppm. To produce further test concentrations, the formulation is diluted with emulsifier-containing water.
Discs of Chinese cabbage leaves (Brassica pekinensis) are sprayed with an active ingredient formulation of the desired concentration and, after drying, populated with larvae of the mustard beetle (Phaedon cochleariae).
After 7 days, the efficacy in % is determined. 100% means that all the beetle larvae have been killed; 0% means that no beetle larvae have been killed.

Spodoptera frugiperda = Spodoptera frugiperda spray test; type: in vivo; details: application rate 100 g/ha, after 7 days, maize leaf discs
Protocol: as §1
Leaf discs of maize (Zea mays) are sprayed with an active ingredient formulation of the desired concentration and, after drying, populated with caterpillars of the armyworm (Spodoptera frugiperda).
After 7 days, the efficacy in % is determined. 100% means that all the caterpillars have been killed; 0% means that no caterpillar has been killed.

Myzus persicae [2] = assay: Myzus persicae oral test; type: in vivo; details: 120 h, application rate 4 ppm, after 5 days, read-out: efficacy (aphids killed)
Protocol: To produce a suitable active ingredient formulation, 1 part by weight of active ingredient is dissolved with the stated parts by weight of solvent and made up to the desired concentration with water.
50 μl of the active ingredient preparation are transferred into microtitre plates and made up to a final volume of 200 μl with 150 μl of IPL41 insect medium (33%+15% sugar). Subselog Puently, the plates are sealed with parafilm, which a mixed population of green peach aphids (Myzus persicae) within a second microtitre plate is able to puncture and imbibe the solution.
(§2) After 5 days, the efficacy in % is determined. 100% means that all the aphids have been killed; 0% means that no aphids have been killed.

Myzus persicae [3] = assay: Myzus persicae spray test; type: in vivo; details: foliar, 120 h, application rate 100 g/ha, after 5 days, Chinese cabbage leaf discs, read-out: efficacy (aphids killed)
Protocol: as §1
Discs of Chinese cabbage leaves (Brassica pekinensis) infested by all stages of the green peach aphid (Myzus persicae) are sprayed with an active ingredient formulation of the desired concentration.
as §2

Tetranychus urticae = Tetranychus urticae spray test, OP-resistant; type: in vivo; details: application rate 100 g/ha, after 6 days, bean leaf discs
Protocol: as §1
Discs of bean leaves (Phaseolus vulgaris) infested with all stages of the greenhouse red spider mite (Tetranychus urticae) are sprayed with an active ingredient formulation of the desired concentration.
After 6 days, the efficacy in % is determined. 100% means that all the spider mites have been killed; 0% means that no spider mites have been killed.

Ctenocephalides felis = Ctenocephalides felis oral test; type: in vivo; details: application rate 100 ppm in citrated cattle blood, after 2 days, adult cat fleas
Protocol: (§3) Solvent: dimethyl sulfoxide
To produce a suitable active ingredient formulation, 10 mg of active ingredient are mixed with 0.5 ml of dimethyl sulfoxide. Dilution with citrated cattle blood gives the desired concentration.
About 20 unfed adult cat fleas (Ctenocephalides felis) are placed into a chamber which is closed at the top and bottom with gauze. A metal cylinder whose bottom end is closed with parafilm is placed onto the chamber. The cylinder contains the blood/active ingredient formulation, which can be imbibed by the fleas through the parafilm membrane.
After 2 days, the kill in % is determined. 100% means that all of the fleas have been killed; 0% means that none of the fleas have been killed.

Boophilus microplus = Boophilus microplus injection test; type: in vivo; details: application rate 20 μg/animal, assessed after 7 days, engorged adult female cattle ticks
Protocol: as §3
To produce a suitable active ingredient formulation, 10 mg of active ingredient are mixed with 0.5 ml of solvent and the concentrate is diluted to the desired concentration with solvent.
1 μl of the active ingredient solution is injected into the abdomen of 5 engorged adult female cattle ticks (Boophilus microplus). The animals are transferred into dishes and kept in a climate-controlled room.
Efficacy is assessed after 7 days by laying of fertile eggs. Eggs which are not visibly fertile are stored in a climate-controlled cabinet until the larvae hatch after about 42 days. An efficacy of 100% means that none of the ticks has laid any fertile eggs; 0% means that all the eggs are fertile.

Diabrotica balteata = Diabrotica balteata spray test; type: in vivo; details: application rate 160 μg/cavity, after 7 days, beetle larvae on germinated wheat grains
Protocol: To produce an appropriate active ingredient formulation, 1 part by weight of active ingredient is dissolved with the given parts by weight of solvent and made up with water containing an emulsifier concentration of 1000 ppm until the desired concentration is attained. Further test concentrations are produced by diluting with emulsifier-containing water.
Pre-swollen wheat grains (Triticum aestivum) are incubated in a multiwell plate filled with agar and a little water for one day (5 seed grains per cavity). The germinated wheat grains are sprayed with an active ingredient formulation of the desired concentration. Subselog Puently, each cavity is infected with 10-20 Diabrotica balteata beetle larvae.
After 7 days, efficacy in % is determined. 100% means that all wheat plants have grown as in the untreated, uninfected control; 0% means that no wheat plant has grown.

Structure (SMILES) | efficacy (caterpillars killed) (Spodoptera frugiperda) [%] | pest or weed control at 4 ppm (Myzus persicae [2]) [%] | pest or weed control at 100 g/ha (Myzus persicae [3]) [%] | further results
Cn1c(-c2nn3c(c2Br)CC(C(F)(F)F)CC3)nc2cc(C(F)(F)F)cnc21 (centres unmarked) [2-[3-Bromo-5-(trifluoromethyl)-4,5,6,7-tetrahydropyrazolo[1,5-a]pyridin-2-yl]-3-methyl-6-(trifluoromethyl)imidazo[4,5-b]pyridine] | – | – | – | chromatographic logP [1]: 3.99
O=C(O)c1nn2c(c1Br)CC(C(F)(F)F)CC2 (centres unmarked) [3-Bromo-5-(trifluoromethyl)-4,5,6,7-tetrahydropyrazolo[1,5-a]pyridine-2-carboxylic acid] | – | – | – | chromatographic logP [1]: 1.75
O=C(O)c1cc2n(n1)CCC(C(F)(F)F)C2 (centres unmarked) [5-(Trifluoromethyl)-4,5,6,7-tetrahydropyrazolo[1,5-a]pyridine-2-carboxylic add] | – | – | – | chromatographic logP [1]: 1.28
O=C(O)c1cc2cc(C(F)(F)F)ccn2n1 [5-(Trifluoromethyl)pyrazolo[1,5-a]pyridine-2-carboxylic add] | – | – | – | chromatographic logP [1]: 1.58
COC(=O)c1nn2ccc(C(F)(F)F)cc2c1C(=O)OC [Dimethyl 5-(trifluoromethyl)pyrazolo[1,5-a]pyridine-2,3-dicarboxylate] | – | – | – | chromatographic logP [1]: 2.57
CCS(=O)(=O)c1c(-c2nc3cc(C(F)(F)F)cnc3n2C)nn2c1CC(C(F)(F)F)CC2 (centres unmarked) [Example I-01, 2-[3-Ethylsulfonyl-5-(trifluoromethyl)-4,5,6,7-tetrahydropyrazolo[1,5-a]pyridin-2-yl]-3-methyl-6-(trifluoromethyl)imidazo[4,5-b]pyridine] | 100 | 100 | – | efficacy (beetle larvae killed) (Phaedon cochleariae): 100%; chromatographic logP [1]: 3.21
CCS(=O)(=O)c1c(-c2nc3cc(C(F)(F)F)cnc3n2C)nn2c1CCCC2 [Example I-03] | – | 100 | 90 | efficacy (beetle larvae killed) (Phaedon cochleariae): 100%
CCS(=O)(=O)c1c(-c2nc3cc(C(F)(F)F)ncc3n2C)nn2c1CC(C(F)(F)F)CC2 (centres unmarked) [Example I-04] | – | 100 | 100 | efficacy (spider mites killed) (Tetranychus urticae): 100%
CCS(=O)(=O)c1c(-c2nc3cc(C(F)(F)F)ncc3n2C)nn2c1CCC(C)C2 (centres unmarked) [Example I-06] | – | – | 90 | –
CCS(=O)(=O)c1c(-c2nc3cc(C(F)(F)F)cnc3n2C)nn2c1CCC(C)C2 (centres unmarked) [Example I-07] | – | 100 | – | –
CCS(=O)(=O)c1c(-c2nc3cc(C(F)(F)C(F)(F)F)cnc3n2C)nn2c1CCC(C)C2 (centres unmarked) [Example I-08] | 100 | 100 | – | –
CCS(=O)(=O)c1c(-c2nc3cc(OC(F)(F)F)cnc3n2C)nn2c1CCC(C)C2 (centres unmarked) [Example I-09] | – | 90 | 90 | –
CCS(=O)(=O)c1c(-c2nc3cc(C(F)(F)F)cnc3n2C)nn2c1CC(C)CC2 (centres unmarked) [Example I-10] | – | 100 | 90 | efficacy (spider mites killed) (Tetranychus urticae): 90%
CCS(=O)(=O)c1c(-c2nc3cc(SC(F)(F)F)cnc3n2C)nn2c1CCC(C)C2 (centres unmarked) [Example I-11] | 83 | 100 | 90 | efficacy (kill in %) (Ctenocephalides felis): 100%
CCS(=O)(=O)c1c(-c2nc3cc(C(F)(F)C(F)(F)F)ncc3n2C)nn2c1CCCC2 [Example I-12] | – | 100 | 90 | efficacy (beetle larvae killed) (Phaedon cochleariae): 100%
CCS(=O)(=O)c1c(-c2nc3cc(C(F)(F)C(F)(F)F)ncc3n2C)nn2c1CC(C)CC2 (centres unmarked) [Example I-13] | 100 | 100 | 90 | efficacy (kill in %) (Ctenocephalides felis): 100%; efficacy (spider mites killed) (Tetranychus urticae): 100%; efficacy (no laying of fertile eggs) (Boophilus microplus): 100%
CCS(=O)(=O)c1c(-c2nc3cc([S+]([O-])C(F)(F)F)cnc3n2C)nn2c1CCC(C)C2 (centres unmarked) [Example I-14] | – | 100 | 100 | –
CCS(=O)(=O)c1c(-c2nc3cc(S(=O)(=O)C(F)(F)F)cnc3n2C)nn2c1CCC(C)C2 (centres unmarked) [Example I-15] | 100 | 90 | 90 | efficacy (kill in %) (Ctenocephalides felis): 90%
CCS(=O)(=O)c1c(-c2nc3cc(S(=O)(=O)C(F)(F)F)ccc3o2)nn2c1CCC(C)C2 (centres unmarked) [Example I-16] | – | 90 | – | –
CCS(=O)(=O)c1c(-c2nc3cc(C(F)(F)C(F)(F)F)ncc3n2C)nn2c1CCC(C(F)(F)F)C2 (centres unmarked) [Example I-17] | 100 | 100 | – | efficacy (wheat plants grown as in untreated, uninfected control) (Diabrotica balteata): 100%
CCS(=O)(=O)c1c(-c2nc3c(n2C)CN(C)C(C(F)(F)F)=C3)nn2c1CCC(C(F)(F)F)C2 (centres unmarked) [Example I-18] | – | 100 | 90 | efficacy (wheat plants grown as in untreated, uninfected control) (Diabrotica balteata): 100%
CCS(=O)(=O)c1c(-c2nc3cc(C(F)(F)C(F)(F)F)cnc3n2C)nn2c1CCC(C(F)(F)F)C2 (centres unmarked) [Example I-19] | 100 | 100 | – | efficacy (wheat plants grown as in untreated, uninfected control) (Diabrotica balteata): 100%

— patent US11019821B2, “Fused bicyclic heterocycle derivatives as pesticides” (Bayer Aktiengesellschaft, priority 2018, dated 2021)
